Where two headings read alike, the source gives them in different places. Marks after values point to notes of the source that are not given here. Starred links: 1 amine or outer side, 2 acyl side, 3 side chain; linkers in the order of their positions; H or OH if unused. Positions of bridges follow the written chain, without caps; N, C: chain ends. Non-standard residues stand in square brackets, D forms with d. Residues, ends and D or L forms follow the SMILES beside them. Chains are numbered I, II in the order given. Actinocin(9to1) = Cc1c2oc3c(C)ccc(C(=O)[*:1])c3nc-2c(C(=O)[*:2])c(N)c1=O; NMeV = CN[C@H](C(=O)O)C(C)C; Sar = CNCC(=O)O
Tests used:
MCF-7/Adr = experiment: cells; type: cell-based, human; details: Table 1C; for folds of resistance (IC50 ratio vs parent cell line): MCF-7/Adr vs MCF-7; for IC50: SRB, 72 h, read-out: IC50
Procedure: Cultures were fixed with trichloroacetic acid and then stained for 30 min with 0.4% suforhodamine B dissolved in 1% acetic acid. Unbound dye was removed by acetic acid washes, and the protein-bound dye was extracted with an unbuffered Tris base (tris(hydroxy-methyl)aminomethane) for determination of absorbance at 570 nm in a 96-well microtiter plate reader. The experiments were carried out in duplicate. Each run entailed six to seven concentrations of the tested drugs.

DC-3F/ADII = experiment: SRB cytotoxicity, DC-3F/ADII; type: cell-based, hamster; details: Table 3; read-out: IC50
Procedure: (§1) The DC-3F hamster lung fibroblast cell line and its actinomycin D-selected sublines (DC-3F/ADII and DC-3F/ADX) were obtained from the Memorial Sloan-Kettering Cancer Center (MSKCC).
(§2) The drug-resistant cell lines were continuously cultured in the presence of the selecting agent, AD, DX, VBL or VM to maintain the drug resistant phenotypes. […] All cells were cultured in RPMI 1640-10% FBS at 37° C. 5% CO2 (see below).
(§3) The cytotoxicity of the drug toward the monolayer cell cultures (such as DC-3F, MCF-7, SK-N-As and sublines) was determined in 96-well microtiter plates by the SRB method as described by Skehan and co-workers (Skehan, P., et al., J. Natl. Cancer Inst. 1990, 82, 1107-1112) for measuring the cellular protein content. Cultures were fixed with trichloroacetic acid and then stained for 30 min with 0.4% suforhodamine B dissolved in 1% acetic acid. Unbound dye was removed by acetic acid washes, and the protein-bound dye was extracted with an unbuffered Tris base (tris(hydroxy-methyl)aminomethane) for determination of absorbance at 570 nm in a 96-well microtiter plate reader. The experiments were carried out in duplicate. Each run entailed six to seven concentrations of the tested drugs. Data were analyzed with the median-effect plot (Chou, T.-C. & Talalay, P. T. (1984) Adv. Enzyme Regul. 22, 27-55) using a previously described computer program (Chou, J., & Chou T.-C. 1987, Dose-effect analysis with microcomputers: Quantitation of ED50, synergism, antagonism, low-dose risk, reception-ligand binding and enzyme kinetics, IBM-PC software and manual, Biosoft, Cambridge, U.K.).
(§4) Concerning Table 3, experiments were carried out using the cell lines DC-3F (parent hamster lung cells), DC-3F/ADII (moderate multidrug-resistant (MDR) cells) and DC-3F/ADX (very strong MDR cells).

MCF-7 = experiment: SRB cytotoxicity, MCF-7; type: cell-based, human; details: Table 1C; SRB, 72 h; read-out: IC50
Procedure: as §3

[1] = system: human neuroblastoma SK-N-As; experiment: SRB cytotoxicity, SK-N-As; type: cell-based; details: Table 1C; SRB, 72 h; read-out: IC50
Procedure: as §1, §2, §3

SK-N-FI = experiment: cells; type: cell-based, human; details: Table 1C; for folds of resistance (IC50 ratio vs parent cell line): SK-N-FI vs SK-N-As; for IC50: SRB, 72 h, read-out: IC50
Procedure: as §2, §3

DC-3F/ADX = experiment: cells; type: cell-based, hamster; details: for folds of resistance (IC50 ratio vs parent cell line): DC-3F/ADX vs DC-3F; for IC50: read-out: IC50
Procedure: as §1, §2, §3, §4

murine leukemic P388/0 = experiment: XTT cytotoxicity, P388/0; type: cell-based; details: Table 1C; XTT, 72 h; read-out: IC50
Procedure: as §1, §2
(§5) The cells were cultured at an initial density of 5×10^4 cells/mL. They were maintained in a 5% CO2-humidified atmosphere at 37° C. in RPMI-1640 medium (GIBCO-BRL, Gaithersburg, Md.) containing penicillin (100 U/mL), streptomycin ([…]) (GIBCO-BRL) and 10% heat inactivate fetal bovine serum. Culture for cell suspension (such as for CCRF-CEM, P388 and sublines), were performed by the XTT-microculture tetrazonium method (Scudiero, D. A. et al., Cancer Res. 1988, 48, 4827-4833) in duplicate in 96-well microtiter plates.
(§6) 2′,3′-Bis(methoxy-4-nitro-5-sufophenyl)-5-[(phenylamino)carbonyl]2H-tetrazolium hyudroxide (XTT) was prepared at 1 mg/mL in prewarmed (37° C.) medium without serum. Phenazine methosulfate (PMS) and fresh XTT were mixed together to obtain 0.025 mM PMS-XTT solution (25 μL of the stock 5 mM PMS was added per 5 mL of 1 mg/mL XTT). Following a 72 h incubation, 50 μL of the assay aliquots were added to each well of the cell culture. After incubation at 37° C. for 4 h, absorbance at 450 nm and 630 nm was measured with a microplate reader (EL340, Bio-Tek Instruments, Inc., Winooski, Vt.).

[2] = system: DC-3F hamster lung fibroblast cell line; experiment: SRB cytotoxicity, DC-3F; type: cell-based; details: read-out: IC50
Procedure: as §1, §2, §3

[3] = system: CCRF-CEM human T-cell acute lymphoblastic leukemia cell line; experiment: XTT cytotoxicity (cell growth inhibition), CCRF-CEM
Method in brief: (§7)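 Growth was read by XTT/PMS reduction over 4 h at 37 °C after 72 h of compound treatment, with absorbance at 450 nm and 630 nm. CCRF-CEM, P388 and their resistant sublines, grown continuously with their selecting drugs, were cultured in duplicate at 5×10^4 cells/mL. The medium was RPMI-1640 with 10% FBS.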

CCRF-CEM/VM1 = experiment: cells; type: cell-based, human; details: for (D)/(A) IC50 ratio: CCRF-CEM/VM1 vs CCRF-CEM
Method in brief: as §7

CCRF-CEM/Taxol® = experiment: cells; type: cell-based, human; details: for IC50: Table 1A, XTT, 72 h, read-out: IC50
Method in brief: as §7

CCRF-CEM/VBL100 = experiment: cells; type: cell-based, human; details: for (B)/(A) IC50 ratio: CCRF-CEM/VBL100 vs CCRF-CEM
Method in brief: as §7

P388/Adr = experiment: cells; type: cell-based, murine; details: Table 1C; for folds of resistance (IC50 ratio vs parent cell line): P388/Adr vs P388/O; for IC50: XTT, 72 h, read-out: IC50
Procedure: as §2, §5, §6

[4] = Table 1A, XTT, 72 h, read-out: IC50

| SMILES | folds of resistance (IC50 ratio vs parent cell line) (MCF-7/Adr) | IC50 (MCF-7/Adr) | IC50 (MCF-7) | IC50 [1] | folds of resistance (IC50 ratio vs parent cell line) (SK-N-FI) | IC50 (SK-N-FI) | folds of resistance (IC50 ratio vs parent cell line) (DC-3F/ADX; Table 1C) | IC50 (DC-3F/ADX; Table 1C, SRB, 72 h) | IC50 (murine leukemic P388/0) | IC50 ([2]; Table 1C, SRB, 72 h) | (D)/(A) IC50 ratio (CCRF-CEM/VM1; Table 1A) | IC50 (CCRF-CEM/VM1; [4]) | (C)/(A) IC50 ratio (CCRF-CEM/Taxol®) | IC50 (CCRF-CEM/Taxol®) | (B)/(A) IC50 ratio (CCRF-CEM/VBL100; Table 1A) | IC50 (CCRF-CEM/VBL100; [4]) | folds of resistance (IC50 ratio vs parent cell line) (P388/Adr) | IC50 (P388/Adr) | further results |
| --- | --- | --- | --- | --- | --- | --- | --- | --- | --- | --- | --- | --- | --- | --- | --- | --- | --- | --- | --- |
| Cc1c2oc3c(C)ccc(C(=O)N[C@@H]4C(=O)N[C@H](C(C)C)C(=O)N5CCC[C@H]5C(=O)N(C)CC(=O)N(C)[C@@H](C(C)C)C(=O)O[C@@H]4C)c3nc-2c(C(=O)N[C@@H]2C(=O)N[C@H](C(C)C)C(=O)N3CCC[C@H]3C(=O)N(C)CC(=O)N(C)[C@@H](C(C)C)C(=O)O[C@@H]2C)c(N)c1=O [Actinomycin D, actinomycin D] (I: T[dV]P[Sar][NMeV] / II: T[dV]P[Sar][NMeV]; ester I:1-I:C, II:1-II:C; linker I:N-II:N via Actinocin(9to1)) | (2.5x) | 1.67 nM | 0.68 nM | 0.85 nM | (14x) | 11.9 nM | (13000x) | 572 nM | 0.15 nM | 0.44 nM | 0.8 | 0.27 nM | 3.7 | 1.3 nM | 109 | 38 nM | (8x) | 1.2 nM | IC50 (DC-3F/ADII): 8.2 nM; fold resistance vs parent DC-3F (DC-3F/ADX; DC-3F/ADX cells, listed as AD): 13,000 fold; IC50 (DC-3F/ADX; Table 3): 486 nM; IC50 ([2]; Table 3): 0.058 nM; IC50 ([2]; Table 3, value in parentheses): 0.0582 nM; IC50 ([3]; Table 1A, XTT, 72 h): 0.35 nM |
| C/C(=C\c1csc(C)n1)[C@@H]1C[C@@H]2O[C@@H]2CCC[C@H](C)[C@H](O)[C@@H](C)C(=O)C(C)(C)[C@@H](O)CC(=O)O1 [Epothilone A, epothilone A] | (3.1x)# | 9.4 nM | 3 nM | 12 nM | (1.9x)# | 23 nM | (14.5x)# | 53 nM | 1.8 nM | 3.7 nM | 2.3 | 6.1 nM | 1.4 | 3.7 nM | 7.4 | 20 nM | (5.3x)# | 1 nM | IC50 (DC-3F/ADX; relative potency ordering): 60 nM; IC50 ([2]; relative potency ordering): 3.6 nM; IC50 [3]: 2.7 nM; IC50 ([3]; Table 1, XTT): 3 nM; IC50 ([3]; Table 7, CEM): 2.9 nM; IC50 ([3]; read-out: IC50 (A), Table 2A, parent cell line): 3.2 nM; (C)/(A) ratio (fold resistance >1, collateral sensitivity <1) (CCRF-CEM/VM1): (1.06)^a; IC50 (CCRF-CEM/VM1; Table 1, XTT, read-out: IC50): 3 nM; IC50 (CCRF-CEM/VM1; Table 2A, Topo II gene mutated cell line, read-out: IC50 (C)): 3.4 nM; (B)/(A) ratio (fold resistance >1, collateral sensitivity <1) (CCRF-CEM/VBL100): (7.5)^a; fold resistance (cross-resistance) vs parent CCRF-CEM (CCRF-CEM/VBL100; CCRF-CEM/VBL100 MDR cells): 8 fold; IC50 (CCRF-CEM/VBL100; Table 1, XTT, read-out: IC50): 20 nM; IC50 (CCRF-CEM/VBL100; Table 2A, MDR cell line, read-out: IC50 (B)): 24 nM; IC50 (CCRF-CEM/VBL100; Table 7, CEM/VBL, read-out: IC50): 20.3 nM; IC50 (CCRF-CEM/VBL100; read-out: IC50): 20 nM |
